{"source": "the kinase profiling compilation of Christmann-Franck et al. (2016)", "assay_in_all_cases": "Caliper, Mobility shift assay off-chip", "key": {"EPHB4 (human)": {"biological_target": "EPHB4 (human) (UniProt P54760)", "sequence (P54760 whole entry, looked up)": "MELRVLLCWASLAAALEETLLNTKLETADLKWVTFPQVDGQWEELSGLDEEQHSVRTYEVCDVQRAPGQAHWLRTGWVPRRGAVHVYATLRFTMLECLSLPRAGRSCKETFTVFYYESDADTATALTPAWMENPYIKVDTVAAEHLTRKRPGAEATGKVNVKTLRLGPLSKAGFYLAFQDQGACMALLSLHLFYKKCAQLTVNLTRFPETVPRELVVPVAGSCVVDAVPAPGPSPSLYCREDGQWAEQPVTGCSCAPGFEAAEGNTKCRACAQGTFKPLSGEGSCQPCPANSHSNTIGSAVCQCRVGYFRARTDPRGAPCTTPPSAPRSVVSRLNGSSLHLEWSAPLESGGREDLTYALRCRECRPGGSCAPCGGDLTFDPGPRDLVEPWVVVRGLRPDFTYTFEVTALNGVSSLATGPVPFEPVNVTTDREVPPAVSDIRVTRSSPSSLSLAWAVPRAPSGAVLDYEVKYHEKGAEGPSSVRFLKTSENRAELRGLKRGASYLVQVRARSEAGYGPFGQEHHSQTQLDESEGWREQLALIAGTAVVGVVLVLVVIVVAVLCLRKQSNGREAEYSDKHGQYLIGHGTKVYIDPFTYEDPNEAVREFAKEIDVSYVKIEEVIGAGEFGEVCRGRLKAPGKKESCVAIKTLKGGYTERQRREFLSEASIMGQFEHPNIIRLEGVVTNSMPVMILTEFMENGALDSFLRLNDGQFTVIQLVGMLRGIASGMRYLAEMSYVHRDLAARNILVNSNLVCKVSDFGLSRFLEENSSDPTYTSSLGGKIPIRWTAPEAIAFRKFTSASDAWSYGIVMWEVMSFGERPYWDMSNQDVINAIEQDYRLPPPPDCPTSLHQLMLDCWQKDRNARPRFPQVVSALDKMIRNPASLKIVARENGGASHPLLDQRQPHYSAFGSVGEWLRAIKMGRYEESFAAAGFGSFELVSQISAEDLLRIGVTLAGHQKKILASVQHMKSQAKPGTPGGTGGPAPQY"}, "PHKG2 (human)": {"biological_target": "PHKG2 (human) (UniProt P15735)"}, "PAK6 (human)": {"biological_target": "PAK6 (human) (UniProt Q9NQU5)"}, "HIPK3 (human)": {"biological_target": "HIPK3 (human) (UniProt Q9H422)"}, "FER (human)": {"biological_target": "FER (human) (UniProt P16591)"}, "PRKD2 (human)": {"biological_target": "PRKD2 (human) (UniProt Q9BZL6)"}, "GSK3B (human)": {"biological_target": "GSK3B (human) (UniProt P49841)"}, "CSNK1G3 (human)": {"biological_target": "CSNK1G3 (human) (UniProt Q9Y6M4)"}, "EPHA6 (human)": {"biological_target": "EPHA6 (human) (UniProt Q9UF33)"}, "SRPK3 (human)": {"biological_target": "SRPK3 (human) (UniProt Q9UPE1)"}, "MAPK10 (human)": {"biological_target": "MAPK10 (human) (UniProt P53779)"}, "PHKG1 (human)": {"biological_target": "PHKG1 (human) (UniProt Q16816)"}, "LTK (human)": {"biological_target": "LTK (human) (UniProt P29376)"}, "PRKD1 (human)": {"biological_target": "PRKD1 (human) (UniProt Q15139)", "sequence (Q15139 whole entry, looked up)": "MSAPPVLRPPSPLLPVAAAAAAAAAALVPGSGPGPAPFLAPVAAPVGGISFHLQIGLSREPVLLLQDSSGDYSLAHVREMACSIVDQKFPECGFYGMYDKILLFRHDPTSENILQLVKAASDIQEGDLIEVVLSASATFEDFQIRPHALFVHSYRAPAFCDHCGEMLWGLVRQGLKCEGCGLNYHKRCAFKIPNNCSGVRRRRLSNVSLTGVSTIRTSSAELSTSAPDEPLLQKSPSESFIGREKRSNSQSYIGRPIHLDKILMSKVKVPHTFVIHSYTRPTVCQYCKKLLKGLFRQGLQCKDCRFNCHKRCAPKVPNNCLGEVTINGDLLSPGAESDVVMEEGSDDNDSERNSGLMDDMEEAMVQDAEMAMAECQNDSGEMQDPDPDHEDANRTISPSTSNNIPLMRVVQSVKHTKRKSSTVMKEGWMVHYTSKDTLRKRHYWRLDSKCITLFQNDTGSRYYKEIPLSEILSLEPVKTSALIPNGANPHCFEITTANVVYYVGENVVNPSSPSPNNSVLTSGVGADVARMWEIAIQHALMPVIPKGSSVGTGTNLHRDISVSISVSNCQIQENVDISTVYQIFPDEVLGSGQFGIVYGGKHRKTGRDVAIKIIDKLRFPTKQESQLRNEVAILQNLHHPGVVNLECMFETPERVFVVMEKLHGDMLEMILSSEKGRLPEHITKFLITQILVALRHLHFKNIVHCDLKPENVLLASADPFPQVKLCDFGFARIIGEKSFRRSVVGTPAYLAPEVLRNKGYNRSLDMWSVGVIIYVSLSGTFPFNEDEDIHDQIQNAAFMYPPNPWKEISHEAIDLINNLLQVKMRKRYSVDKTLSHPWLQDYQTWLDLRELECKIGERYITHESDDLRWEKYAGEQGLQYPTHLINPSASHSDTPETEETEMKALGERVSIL"}, "RPS6KA6 KD1 KD2 (human)": {"biological_target": "RPS6KA6 KD1 KD2 (human) (UniProt Q9UK32)", "sequence (Q9UK32 whole entry, looked up)": "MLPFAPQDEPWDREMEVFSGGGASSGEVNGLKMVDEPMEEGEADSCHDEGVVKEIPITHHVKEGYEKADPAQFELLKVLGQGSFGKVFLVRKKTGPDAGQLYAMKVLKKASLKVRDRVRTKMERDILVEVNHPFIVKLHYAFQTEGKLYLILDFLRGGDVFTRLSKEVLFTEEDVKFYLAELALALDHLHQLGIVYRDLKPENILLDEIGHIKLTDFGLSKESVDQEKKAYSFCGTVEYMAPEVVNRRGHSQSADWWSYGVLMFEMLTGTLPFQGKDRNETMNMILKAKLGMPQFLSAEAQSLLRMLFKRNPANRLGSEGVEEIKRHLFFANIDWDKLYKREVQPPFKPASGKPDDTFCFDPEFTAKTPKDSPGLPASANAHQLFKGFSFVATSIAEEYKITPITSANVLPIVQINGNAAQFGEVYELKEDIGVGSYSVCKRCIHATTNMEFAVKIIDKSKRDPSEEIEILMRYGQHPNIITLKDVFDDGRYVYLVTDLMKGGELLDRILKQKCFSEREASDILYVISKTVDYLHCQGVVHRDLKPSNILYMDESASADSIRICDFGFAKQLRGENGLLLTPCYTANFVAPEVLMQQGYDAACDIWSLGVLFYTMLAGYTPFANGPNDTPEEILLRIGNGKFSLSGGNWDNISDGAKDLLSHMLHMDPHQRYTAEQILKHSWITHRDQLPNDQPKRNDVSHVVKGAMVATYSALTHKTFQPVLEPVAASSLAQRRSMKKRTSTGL"}, "MAP4K4 (human)": {"biological_target": "MAP4K4 (human) (UniProt O95819)"}, "SIK1 (human)": {"biological_target": "SIK1 (human) (UniProt P57059)"}, "NEK1 (human)": {"biological_target": "NEK1 (human) (UniProt Q96PY6)"}, "BMX (human)": {"biological_target": "BMX (human) (UniProt P51813)", "sequence (P51813 whole entry, looked up)": "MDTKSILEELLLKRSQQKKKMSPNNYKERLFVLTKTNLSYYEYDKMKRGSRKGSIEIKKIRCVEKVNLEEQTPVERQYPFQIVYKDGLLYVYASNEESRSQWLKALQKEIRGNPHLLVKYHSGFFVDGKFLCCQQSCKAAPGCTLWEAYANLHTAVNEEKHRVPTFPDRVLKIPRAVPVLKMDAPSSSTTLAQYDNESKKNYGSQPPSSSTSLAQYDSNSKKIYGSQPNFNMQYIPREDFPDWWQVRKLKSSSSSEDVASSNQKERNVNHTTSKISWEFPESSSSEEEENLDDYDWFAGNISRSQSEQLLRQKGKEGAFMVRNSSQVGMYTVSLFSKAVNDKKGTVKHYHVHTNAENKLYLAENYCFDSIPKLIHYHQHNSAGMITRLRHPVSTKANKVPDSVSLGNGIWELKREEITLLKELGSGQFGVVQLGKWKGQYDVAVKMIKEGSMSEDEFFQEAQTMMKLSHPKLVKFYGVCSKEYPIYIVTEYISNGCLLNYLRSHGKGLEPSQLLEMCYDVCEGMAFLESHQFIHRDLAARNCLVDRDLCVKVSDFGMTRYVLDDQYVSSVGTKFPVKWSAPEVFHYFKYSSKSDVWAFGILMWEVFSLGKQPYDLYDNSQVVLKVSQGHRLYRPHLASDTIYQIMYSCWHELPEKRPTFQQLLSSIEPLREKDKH"}, "SRPK2 (human)": {"biological_target": "SRPK2 (human) (UniProt P78362)"}, "PLK3 (human)": {"biological_target": "PLK3 (human) (UniProt Q9H4B4)"}, "PGK1 (human)": {"biological_target": "PGK1 (human) (UniProt P00558)"}, "RPS6KB2 (human)": {"biological_target": "RPS6KB2 (human) (UniProt Q9UBS0)", "sequence (Q9UBS0 whole entry, looked up)": "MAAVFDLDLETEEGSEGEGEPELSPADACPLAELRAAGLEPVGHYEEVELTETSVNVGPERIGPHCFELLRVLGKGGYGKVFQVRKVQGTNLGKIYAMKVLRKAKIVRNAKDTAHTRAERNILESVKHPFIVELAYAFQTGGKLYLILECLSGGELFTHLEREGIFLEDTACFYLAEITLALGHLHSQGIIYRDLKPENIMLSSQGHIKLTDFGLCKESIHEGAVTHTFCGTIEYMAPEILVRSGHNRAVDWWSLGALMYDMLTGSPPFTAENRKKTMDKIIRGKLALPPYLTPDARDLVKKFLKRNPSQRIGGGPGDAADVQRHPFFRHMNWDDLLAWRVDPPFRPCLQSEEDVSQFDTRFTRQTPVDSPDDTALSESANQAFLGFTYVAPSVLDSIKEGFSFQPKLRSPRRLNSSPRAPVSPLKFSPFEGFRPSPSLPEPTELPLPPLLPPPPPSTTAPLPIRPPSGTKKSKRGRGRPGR"}, "ALK EML4 (human)": {"biological_target": "ALK EML4 (human) (UniProt Q9HC35+Q9UM73)"}, "FGFR3 (human)": {"biological_target": "FGFR3 (human) (UniProt P22607)", "sequence (P22607 whole entry, looked up)": "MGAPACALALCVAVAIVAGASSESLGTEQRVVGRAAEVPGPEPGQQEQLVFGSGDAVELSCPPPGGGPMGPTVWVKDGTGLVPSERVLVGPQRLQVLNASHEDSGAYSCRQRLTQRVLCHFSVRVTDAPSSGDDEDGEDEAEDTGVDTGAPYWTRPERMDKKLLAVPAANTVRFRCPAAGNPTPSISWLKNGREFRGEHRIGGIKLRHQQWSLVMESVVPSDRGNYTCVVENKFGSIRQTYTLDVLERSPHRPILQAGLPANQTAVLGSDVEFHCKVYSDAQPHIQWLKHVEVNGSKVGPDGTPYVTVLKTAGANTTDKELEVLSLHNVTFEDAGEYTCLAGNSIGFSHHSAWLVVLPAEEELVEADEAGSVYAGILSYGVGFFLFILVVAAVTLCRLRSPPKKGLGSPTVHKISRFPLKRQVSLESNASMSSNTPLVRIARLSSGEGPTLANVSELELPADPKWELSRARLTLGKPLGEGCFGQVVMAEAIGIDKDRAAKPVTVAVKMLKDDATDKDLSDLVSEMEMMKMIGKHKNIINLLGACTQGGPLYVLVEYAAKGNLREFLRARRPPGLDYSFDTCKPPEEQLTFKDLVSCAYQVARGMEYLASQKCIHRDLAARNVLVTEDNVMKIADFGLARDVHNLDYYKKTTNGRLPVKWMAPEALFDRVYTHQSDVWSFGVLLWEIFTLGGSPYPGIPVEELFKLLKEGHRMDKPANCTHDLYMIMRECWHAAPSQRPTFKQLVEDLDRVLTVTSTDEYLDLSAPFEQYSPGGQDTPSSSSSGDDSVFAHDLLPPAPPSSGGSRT"}, "STK4 (human)": {"biological_target": "STK4 (human) (UniProt Q13043)"}, "MST1R (human)": {"biological_target": "MST1R (human) (UniProt Q04912)"}, "NUAK2 (human)": {"biological_target": "NUAK2 (human) (UniProt Q9H093)"}, "CIT (human)": {"biological_target": "CIT (human) (UniProt O14578)"}, "CAMK1 (human)": {"biological_target": "CAMK1 (human) (UniProt Q14012)", "sequence (Q14012 whole entry, looked up)": "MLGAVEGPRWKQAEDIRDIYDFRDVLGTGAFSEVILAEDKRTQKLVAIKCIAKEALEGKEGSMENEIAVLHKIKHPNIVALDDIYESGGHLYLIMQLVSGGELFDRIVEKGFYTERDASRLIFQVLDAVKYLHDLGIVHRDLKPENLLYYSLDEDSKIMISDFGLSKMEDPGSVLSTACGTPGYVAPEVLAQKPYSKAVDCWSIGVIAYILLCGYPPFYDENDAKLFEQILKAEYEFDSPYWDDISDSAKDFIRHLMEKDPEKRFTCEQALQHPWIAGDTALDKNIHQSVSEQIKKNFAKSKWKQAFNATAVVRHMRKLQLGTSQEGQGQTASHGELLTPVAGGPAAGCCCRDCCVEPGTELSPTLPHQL"}, "PRKAA2 (human)": {"biological_target": "PRKAA2 (human) (UniProt P54646)"}, "FGR (human)": {"biological_target": "FGR (human) (UniProt P09769)"}, "PIM2 (human)": {"biological_target": "PIM2 (human) (UniProt Q9P1W9)"}, "CSNK1A1 (human)": {"biological_target": "CSNK1A1 (human) (UniProt P48729)"}}}
{"molecule": "COc1cc2c(Oc3ccc4[nH]c(C)cc4c3F)ncnc2cc1OCCCN1CCCC1", "values": [{"measurement": "inhibition", "setting": "EPHB4 (human); compound 0.02 µM", "result": -0.5, "unit": "%"}, {"measurement": "inhibition", "setting": "EPHB4 (human); compound 0.2 µM", "result": 23.3, "unit": "%"}, {"measurement": "inhibition", "setting": "PHKG2 (human); compound 0.02 µM", "result": -2.9, "unit": "%"}, {"measurement": "inhibition", "setting": "PHKG2 (human); compound 0.2 µM", "result": -3.3, "unit": "%"}, {"measurement": "inhibition", "setting": "PAK6 (human); compound 0.02 µM", "result": -2.2, "unit": "%"}, {"measurement": "inhibition", "setting": "PAK6 (human); compound 0.2 µM", "result": -4.9, "unit": "%"}, {"measurement": "inhibition", "setting": "HIPK3 (human); compound 0.02 µM", "result": -6.3, "unit": "%"}, {"measurement": "inhibition", "setting": "HIPK3 (human); compound 0.2 µM", "result": 0.5, "unit": "%"}, {"measurement": "inhibition", "setting": "FER (human); compound 0.02 µM", "result": 8.7, "unit": "%"}, {"measurement": "inhibition", "setting": "FER (human); compound 0.2 µM", "result": 11.2, "unit": "%"}, {"measurement": "inhibition", "setting": "PRKD2 (human); compound 0.02 µM", "result": -0.3, "unit": "%"}, {"measurement": "inhibition", "setting": "PRKD2 (human); compound 0.2 µM", "result": -1.5, "unit": "%"}, {"measurement": "inhibition", "setting": "GSK3B (human); compound 0.02 µM", "result": 0.7, "unit": "%"}, {"measurement": "inhibition", "setting": "GSK3B (human); compound 0.2 µM", "result": 0.8, "unit": "%"}, {"measurement": "inhibition", "setting": "CSNK1G3 (human); compound 0.02 µM", "result": 2.8, "unit": "%"}, {"measurement": "inhibition", "setting": "CSNK1G3 (human); compound 0.2 µM", "result": -1.8, "unit": "%"}, {"measurement": "inhibition", "setting": "EPHA6 (human); compound 0.02 µM", "result": 37.1, "unit": "%"}, {"measurement": "inhibition", "setting": "EPHA6 (human); compound 0.2 µM", "result": 95.9, "unit": "%"}, {"measurement": "inhibition", "setting": "SRPK3 (human); compound 0.02 µM", "result": -3.4, "unit": "%"}, {"measurement": "inhibition", "setting": "SRPK3 (human); compound 0.2 µM", "result": 0.3, "unit": "%"}, {"measurement": "inhibition", "setting": "MAPK10 (human); compound 0.02 µM", "result": -2.9, "unit": "%"}, {"measurement": "inhibition", "setting": "MAPK10 (human); compound 0.2 µM", "result": -6.5, "unit": "%"}, {"measurement": "inhibition", "setting": "PHKG1 (human); compound 0.02 µM", "result": -5.1, "unit": "%"}, {"measurement": "inhibition", "setting": "PHKG1 (human); compound 0.2 µM", "result": -3.5, "unit": "%"}, {"measurement": "inhibition", "setting": "LTK (human); compound 0.02 µM", "result": 4.7, "unit": "%"}, {"measurement": "inhibition", "setting": "LTK (human); compound 0.2 µM", "result": 5.6, "unit": "%"}, {"measurement": "inhibition", "setting": "PRKD1 (human); compound 0.02 µM", "result": -1.3, "unit": "%"}, {"measurement": "inhibition", "setting": "PRKD1 (human); compound 0.2 µM", "result": -2.2, "unit": "%"}, {"measurement": "inhibition", "setting": "RPS6KA6 KD1 KD2 (human); compound 0.02 µM", "result": 15, "unit": "%"}, {"measurement": "inhibition", "setting": "RPS6KA6 KD1 KD2 (human); compound 0.2 µM", "result": -2.3, "unit": "%"}, {"measurement": "inhibition", "setting": "MAP4K4 (human); compound 0.02 µM", "result": -0.2, "unit": "%"}, {"measurement": "inhibition", "setting": "MAP4K4 (human); compound 0.2 µM", "result": 15.5, "unit": "%"}, {"measurement": "inhibition", "setting": "SIK1 (human); compound 0.02 µM", "result": -3.3, "unit": "%"}, {"measurement": "inhibition", "setting": "SIK1 (human); compound 0.2 µM", "result": -0.4, "unit": "%"}, {"measurement": "inhibition", "setting": "NEK1 (human); compound 0.02 µM", "result": -5, "unit": "%"}, {"measurement": "inhibition", "setting": "NEK1 (human); compound 0.2 µM", "result": -4.5, "unit": "%"}, {"measurement": "inhibition", "setting": "BMX (human); compound 0.02 µM", "result": 8.4, "unit": "%"}, {"measurement": "inhibition", "setting": "BMX (human); compound 0.2 µM", "result": 7.1, "unit": "%"}, {"measurement": "inhibition", "setting": "SRPK2 (human); compound 0.02 µM", "result": -7.9, "unit": "%"}, {"measurement": "inhibition", "setting": "SRPK2 (human); compound 0.2 µM", "result": -5.3, "unit": "%"}, {"measurement": "inhibition", "setting": "PLK3 (human); compound 0.02 µM", "result": 6, "unit": "%"}, {"measurement": "inhibition", "setting": "PLK3 (human); compound 0.2 µM", "result": 7.9, "unit": "%"}, {"measurement": "inhibition", "setting": "PGK1 (human); compound 0.02 µM", "result": -1.4, "unit": "%"}, {"measurement": "inhibition", "setting": "PGK1 (human); compound 0.2 µM", "result": -6.5, "unit": "%"}, {"measurement": "inhibition", "setting": "RPS6KB2 (human); compound 0.02 µM", "result": 1, "unit": "%"}, {"measurement": "inhibition", "setting": "RPS6KB2 (human); compound 0.2 µM", "result": 0.6, "unit": "%"}, {"measurement": "inhibition", "setting": "ALK EML4 (human); compound 0.02 µM", "result": -1.4, "unit": "%"}, {"measurement": "inhibition", "setting": "ALK EML4 (human); compound 0.2 µM", "result": 0.1, "unit": "%"}, {"measurement": "inhibition", "setting": "FGFR3 (human); compound 0.02 µM", "result": 72.3, "unit": "%"}, {"measurement": "inhibition", "setting": "FGFR3 (human); compound 0.2 µM", "result": 96.5, "unit": "%"}, {"measurement": "inhibition", "setting": "STK4 (human); compound 0.02 µM", "result": -4.5, "unit": "%"}, {"measurement": "inhibition", "setting": "STK4 (human); compound 0.2 µM", "result": 9, "unit": "%"}, {"measurement": "inhibition", "setting": "MST1R (human); compound 0.02 µM", "result": 4.9, "unit": "%"}, {"measurement": "inhibition", "setting": "MST1R (human); compound 0.2 µM", "result": 10.8, "unit": "%"}, {"measurement": "inhibition", "setting": "NUAK2 (human); compound 0.02 µM", "result": 8.9, "unit": "%"}, {"measurement": "inhibition", "setting": "NUAK2 (human); compound 0.2 µM", "result": -17.5, "unit": "%"}, {"measurement": "inhibition", "setting": "CIT (human); compound 0.02 µM", "result": -3, "unit": "%"}, {"measurement": "inhibition", "setting": "CIT (human); compound 0.2 µM", "result": -1.6, "unit": "%"}, {"measurement": "inhibition", "setting": "CAMK1 (human); compound 0.02 µM", "result": -3.1, "unit": "%"}, {"measurement": "inhibition", "setting": "CAMK1 (human); compound 0.2 µM", "result": -3.1, "unit": "%"}, {"measurement": "inhibition", "setting": "PRKAA2 (human); compound 0.02 µM", "result": 5.1, "unit": "%"}, {"measurement": "inhibition", "setting": "PRKAA2 (human); compound 0.2 µM", "result": 6, "unit": "%"}, {"measurement": "inhibition", "setting": "FGR (human); compound 0.02 µM", "result": 12.6, "unit": "%"}, {"measurement": "inhibition", "setting": "FGR (human); compound 0.2 µM", "result": 27.6, "unit": "%"}, {"measurement": "inhibition", "setting": "PIM2 (human); compound 0.02 µM", "result": 6.1, "unit": "%"}, {"measurement": "inhibition", "setting": "PIM2 (human); compound 0.2 µM", "result": 8.8, "unit": "%"}, {"measurement": "inhibition", "setting": "CSNK1A1 (human); compound 0.02 µM", "result": -5.9, "unit": "%"}, {"measurement": "inhibition", "setting": "CSNK1A1 (human); compound 0.2 µM", "result": -7.9, "unit": "%"}]}
